Literature values as cited in patent US6409991B1, “Treatment and system for nicotine withdrawal” (priority 1999, dated 2002).

CN1CCCC1c1cccnc1 (stereo not shown) [nicotine]
plasma half-life: approximately two
